The record followed here is patent publication US9504738B2, “Immunogenic epitopes, peptidomimetics, and anti-peptide antibodies, and methods of their use” (Ohio State Innovation Foundation, priority 2010, dated 2016).

Ends that are not written are not given here.

Assay [1] has as its system HUVEC. Briefly: Scratch wound assay (HUVEC migration). Type of assay: cell-based, human. As to conditions: stimulated with 50 ng/ml rhVEGF, 16 h. As for the experimental part:
Scratch Wound Assay. HUVEC were cultured on 0.1% gelatin coated 24-well plates. Confluent cells were incubated overnight with starving media, then they were scraped using sterilized 200-μl pipette tips and stimulated with 50 ng/ml of rhVEGF with or without VEGF mimic peptides for 16 h at 37° C. Cells were fixed and images were captured immediately at 40× magnification from light microscopy and cells that migrated to the scraped area were counted using imageJ software.
VEGF mimic peptides inhibit cell migration in a Scratch Wound Assay. New blood vessel formation requires that the endothelial cells migrate towards the sources of growth factor. […] We used the scratch wound assay with HUVEC to observe the ability of the VEGF mimic peptides in inhibiting endothelial cell migration. […] Growth conditions (medium supplemented with 20% FBS and endothelial cell growth supplements).

In assay [2] the target is T1, VEGFR-2 (Homo sapiens, UniProt P35968).
T1 construct: host or cells: 293/KDR cells
Briefly: VEGFR-2 phosphorylation in 293/KDR cells, quantified with Human Phospho-VEGF R2/KDR DuoSet IC kit. Type of assay: cell-based. As to conditions: 293/KDR cells stimulated with rhVEGF; control (only rhVEGF) taken as 100%. As for the experimental part: 293/KDR cells (5×10^5 cells/well) were seeded on 6-well plates in DMEM medium supplemented with 10% FBS. After overnight incubation in starving medium (no FBS) cells were stimulated with rhVEGF for 5 min. Cells were washed in cold PBS supplemented with 1 mM sodium orthovanadate and harvested into RIPA lysis buffer (Santa Cruz Biotechnology, Santa Cruz, Calif.) and incubated on ice for 30 min and cell lysate was collected after centrifugation at 13000 rpm for 10 min. Cell lysate was kept at −80° C. until used for Western blotting detecting phosphoro-KDR and total KDR as described above.
Conformational VEGF mimic peptide prevents VEGFR-2 phosphorylation. VEGFR-2 (also known as […] or KDR) has been characterized as a tyrosine receptor type III. VEGFR-2 activation is promoted by dimerization upon VEGF binding. VEGFR-2 contains several tyrosine residues that can be phosphorylated, triggering several pathways such as proliferation, migration and survival in the endothelial cells. […] All three VEGF mimic peptides were able to decrease the level of receptor phosphorylation (FIG. 5); however, the inhibitory effect was unable to be quantified, due to the limited detection of VEGFR-2 in the Western blotting. […] The percentage of inhibition was calculated assuming the phosphorylation level of control (only rhVEGF) was 100% and the results are represented in FIG. 6B.

The target in assay [3] is T2, extracellular domain of VEGFR-2 (KDR-Fc) (Homo sapiens, UniProt P35968).
T2 construct: the extracellular domain of VEGFR-2(KDR-Fc) was injected as ligand; Fc; purchased R&D System
Briefly: Surface plasmon resonance (BIAcore 3000): KDR-Fc injected over immobilized VEGF mimic peptides. As to conditions: peptide immobilized on CM5 chip, 1:1 (Langmuir) model, read-out: equilibrium binding constant (KD), binding affinity. Here is the method:
Surface Plasma Resonance. Binding assays were performed using a Biacore 3000 instrument (Pharmacia Bio-sensor, Uppsala, Sweden). The experiments were performed at room temperature using HBS-EP buffer (25 mM HEPES, pH 7.4, […], 3.4 mM EDTA, and 0.005% surfactant P20). Peptides were coupled onto CM5 chip surfaces at 10 μL/min using a standard amine coupling protocol with EDC (N-ethyl-N′-[dimethylaminopropyl]carbodiimide)/NHS (N-hydroxysuccinimide). KDR-Fc (R&D System) at several concentrations in HBS-EP buffer. Was injected at a flow rate of 10 μL/min. Data analysis was performed with BIAsimulation software version 3.1 (Pharmacia Biosensor). […] To obtain measurement of anti-peptides binding affinities similar a experiment was carried out, but rhVEGF was immobilized onto CM5 chip surface and anti-peptides were injected at several concentrations.
Conformational VEGF mimic peptide binds to VEGFR-2. Binding assay was carried out using BIAcore 3000 instrument. Designed VEGF mimic peptide VEGF-P3 (NC) and (CYC) were immobilized onto chip CM5 and the extracellular domain of VEGFR-2(KDR-Fc) was injected as ligand. […] Global analysis was performed with data points fitting to a simple 1:1 (Langmuir) binding model. The equilibrium binding constant (KD) takes Ka and Kd values in consideration and represents the binding affinity. […]
For orientation: Surface plasmon resonance follows binding to a sensor surface in real time, without labels.

The target of assay [4] is T3, HER-2 (Homo sapiens, UniProt P04626).
T3 construct: The human breast tumor cell lines BT-474 were purchased from American Type Culture Collection; host or cells: BT-474
Briefly: HER-2 phosphorylation assay in BT-474 cells, peptides (Duoset IC human phospho-ErbB2). Type of assay: cell-based. The note with it: peptides then HRG 10 min. Here is the method:
Phosphorylation assay. 1×10^6 BT-474 cells were plated in each well of a six well plate and incubated overnight at 37° C. Culture medium was removed and the cell layer washed once with PBS low score (1% FCS). Culture medium was added to the wells and plates incubated overnight. Cells were washed and 50 ug of peptides, anti-peptide Abs and controls in binding buffer (0.2% w/v BSA, RPMI 1640 medium with 10 mM HEPES (pH 7.2) was added to the wells and incubated at room temperature for 1 h. HRG (5 nM/well) was added and the incubation continued for 10 min. Binding buffer was removed and the cell layer washed once with PBS before adding 1 ml of RIPA lysis buffer (Santa Cruz Biotechnology, Santa Cruz, Calif.). Plates were rocked at 4° C. for 2 h. Lysates were removed, spun at 13000×g and supernatants collected. Protein concentration of each sample was measured by Coomassie plus protein assay reagent kit and lysates were stored at −80° C. Phosphorylation was determined by Duoset IC for human phosphor-ErbB2 according to the manufacturer's directions (RSD Systems).
Peptide inhibition of Phosphorylation. The main mode of action of Pertuzumab is to inhibit phosphorylation. This is due to the fact that it sterically blocks the dimerization domain of HER-2 thereby preventing the formation of dimers with other HER receptors and thus interrupting downstream signaling. […]

In assay [5] the test system is TS/A cells (HER-2 negative). Briefly: Proliferation assay (MTT) of TS/A cells in presence of HRG. Type of assay: cell-based, mouse. The note with it: HER-2 negative cell line.
Experimental: Proliferation assay. BT-474, SK-BR-3, MDA-468 and TS/A cells (1×10^4 were plated in 96-well flat-bottom plates overnight. Growth medium was replaced with low sera (1% FCS) medium and the cells were incubated overnight. Media were removed from the wells and replaced with low sera medium containing HER-2 and VEGF mimic peptides at concentrations ranging from 25-150 ug/ml and plates were incubated an additional 1 h at 37° C. before adding 10 ng/ml HRG in 1% medium. Plates were incubated for an additional 72 h at 37° C. before adding MTT (5 mg/ml) to each well. Plates were incubated 2 h at 37° C., and 1000 of extraction buffer (20% SDS, 50% dimethylformamide (pH 4.7)) was added to each well. Plates incubated overnight at 37° C. and read on an ELISA reader at 570 nm with 655 nm background subtraction Inhibition percentage was calculated as 100%×(Untreated cells-Peptide treated cells)/(Untreated cells).
Antiproliferative effects of peptides. The antiproliferative effects of the peptides were tested using four different cell lines (Bt-474 and SK-BR-3: HER-2^high, MDA-468: HER-2^low and TS/A: HER-2^negative) (FIGS. 13A-13D) in the presence of HRG to activate the HER-3 receptor. […] The cells were incubated with the peptides before being exposed to HRG.
Assay [6] can be described thus: Active immunization of rabbits, antibody titers by ELISA. Type of assay: in vivo, rabbit. The note with it: outbred rabbits, MVF chimeric peptide. As for the experimental part: Active immunization and Ab purification. Mice and rabbits were immunized subcutaneously at multiple sites with a total of 1 mg (rabbits) or 100 μg (mice) of peptide dissolved in ddH2O emulsified (1:1) in Montanide ISA720 vehicle (Seppic) with 100 μg of N-acetylglucosamine-3-yl-acetyl-1-alanyl-d-isoglutamine (nor-MDP). Balb/c mice. Rabbits and mice were boosted with the respective doses at 3 week intervals. Rabbit blood was collected via the central auricular artery and sera tested for antibody titers. Anti-peptide antibodies were purified by affinity chromatography using a Protein A/G column (Pierce) from high titer antibody sera.
ELISA. Antibody titers were determined as previously described and it is defined as the reciprocal of the highest serum dilution with an absorbance of 0.2 or greater after subtracting the background.
Antigenicity and Immunogenicity of Peptides. Earlier studies in our lab have shown that the MVF-HER-2-266 was highly immunogenic in both rabbits and mice. […] We had to do up to six immunizations with the D-amino acid peptide before we could obtain higher abs titers while with the L-amino acids only four immunization are enough to produce higher titers. We therefore used the abs raised against these peptides to test their effects on cancer cells in vitro.
A general note: In an ELISA, binding on a coated surface is turned into a signal by an enzyme label.

T1 sequence (P35968 20-1356): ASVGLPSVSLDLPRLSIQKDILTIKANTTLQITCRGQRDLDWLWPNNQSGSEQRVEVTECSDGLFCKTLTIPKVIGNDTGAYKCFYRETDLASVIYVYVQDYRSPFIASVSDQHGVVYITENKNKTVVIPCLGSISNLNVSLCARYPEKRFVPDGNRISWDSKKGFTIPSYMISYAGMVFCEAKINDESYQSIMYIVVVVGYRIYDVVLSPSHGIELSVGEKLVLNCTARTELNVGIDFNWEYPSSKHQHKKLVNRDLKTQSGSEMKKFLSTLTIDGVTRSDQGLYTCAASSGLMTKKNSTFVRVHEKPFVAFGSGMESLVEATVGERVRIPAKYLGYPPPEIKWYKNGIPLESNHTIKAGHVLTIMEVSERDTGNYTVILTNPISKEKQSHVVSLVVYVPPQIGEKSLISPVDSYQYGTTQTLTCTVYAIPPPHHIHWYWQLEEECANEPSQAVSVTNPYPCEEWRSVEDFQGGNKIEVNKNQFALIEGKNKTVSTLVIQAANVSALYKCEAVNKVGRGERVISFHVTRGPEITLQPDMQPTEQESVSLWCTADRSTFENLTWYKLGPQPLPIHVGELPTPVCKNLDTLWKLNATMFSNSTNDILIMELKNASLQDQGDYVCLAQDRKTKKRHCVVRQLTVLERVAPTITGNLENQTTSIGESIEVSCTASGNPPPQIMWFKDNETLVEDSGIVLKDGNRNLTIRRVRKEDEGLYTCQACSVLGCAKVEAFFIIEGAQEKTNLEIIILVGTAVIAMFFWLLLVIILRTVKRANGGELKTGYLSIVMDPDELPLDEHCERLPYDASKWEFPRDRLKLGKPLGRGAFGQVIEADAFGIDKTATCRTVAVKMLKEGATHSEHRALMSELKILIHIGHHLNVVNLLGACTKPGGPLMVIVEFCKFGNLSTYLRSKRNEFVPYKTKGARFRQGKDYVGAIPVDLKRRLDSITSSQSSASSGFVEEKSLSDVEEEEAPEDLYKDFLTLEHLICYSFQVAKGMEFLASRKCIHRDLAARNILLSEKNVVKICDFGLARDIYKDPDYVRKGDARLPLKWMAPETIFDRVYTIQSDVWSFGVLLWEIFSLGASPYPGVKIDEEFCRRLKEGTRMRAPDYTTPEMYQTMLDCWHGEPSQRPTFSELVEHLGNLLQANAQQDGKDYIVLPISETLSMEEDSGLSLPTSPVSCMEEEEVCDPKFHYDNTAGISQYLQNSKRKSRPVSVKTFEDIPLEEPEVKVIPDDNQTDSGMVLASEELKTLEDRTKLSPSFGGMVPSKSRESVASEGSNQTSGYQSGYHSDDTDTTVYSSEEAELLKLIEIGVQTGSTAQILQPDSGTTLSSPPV
T2 sequence (P35968 20-764 limits assumed): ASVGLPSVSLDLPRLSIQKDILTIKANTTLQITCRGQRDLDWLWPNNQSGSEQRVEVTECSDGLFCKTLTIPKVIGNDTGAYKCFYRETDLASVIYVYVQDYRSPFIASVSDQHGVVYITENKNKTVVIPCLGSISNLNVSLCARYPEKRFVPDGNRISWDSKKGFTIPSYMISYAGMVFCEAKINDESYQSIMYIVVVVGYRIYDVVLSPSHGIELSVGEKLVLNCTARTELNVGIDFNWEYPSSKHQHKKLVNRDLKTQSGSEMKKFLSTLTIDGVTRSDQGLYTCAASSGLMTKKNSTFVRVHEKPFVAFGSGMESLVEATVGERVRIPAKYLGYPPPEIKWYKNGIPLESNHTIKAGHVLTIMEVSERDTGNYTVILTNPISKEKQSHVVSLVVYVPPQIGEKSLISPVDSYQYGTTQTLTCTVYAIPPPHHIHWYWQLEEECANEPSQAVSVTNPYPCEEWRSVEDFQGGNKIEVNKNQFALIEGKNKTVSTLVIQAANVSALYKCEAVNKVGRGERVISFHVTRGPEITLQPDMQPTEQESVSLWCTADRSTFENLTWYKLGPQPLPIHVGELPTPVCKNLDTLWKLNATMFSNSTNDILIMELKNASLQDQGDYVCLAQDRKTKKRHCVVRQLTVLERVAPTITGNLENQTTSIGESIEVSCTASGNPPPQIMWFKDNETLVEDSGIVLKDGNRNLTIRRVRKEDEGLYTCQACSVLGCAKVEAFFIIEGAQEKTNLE

Consider `CC(C)c1cc(/C=C(\C#N)C(=O)NCCCc2ccccc2)cc(C(C)C)c1O` [SU1498], for which, in assay [1], the “inhibition of HUVEC migration” value is “approximately 50%”. What is called Kd is the constant that tells how readily two partners part at equilibrium. Take ITMQIMRIKPHQGQHIGEMSF [VEGF 102-122]: the “inhibition of VEGFR-2 phosphorylation” value in assay [2] is recorded as 4%. Also, in assay [3], the Kd worked out at 45 nM. With “LHCPALVTYNTDTFESMPNPEGRYTFGASCV [HER-2-266-296]”, the “inhibition rate of HER-2 phosphorylation” value in assay [4] stood at 38%. In addition, in assay [5], the “antiproliferative effect on TS/A cells” value was “inhibitory effects”.

In the case of “NH2-D[FSMECIMIKPHQGQHIGCQMTI]-COOH [VEGF-P4-CYC]”, in assay [4], the “inhibition rate of HER-2 phosphorylation” value was determined as 39%. Further, in assay [6], the “immunogenicity (antibody titers)” value is listed as “immunogenic”.
